The text below walks through data of patent US20120220581A1, “IMIDAZO[1,2-b]PYRIDAZINE DERIVATIVES AND THEIR USE AS PDE10 INHIBITORS” (Janssen-Cilag, S.A., priority 2009, published 2012).

The test system of data set [1] is female hooded-Lister rats. Put plainly: Object recognition test (NOR) after sub-chronic PCP. It counts as in vivo, rat. As for the experimental part: 60 female hooded-Lister rats (Charles River, UK) were used as subjects for these studies and weighed 248 g±20 g. Rats were allowed at least a 7-day acclimatization period to the animal unit prior to commencement of experimentation. Rats were housed in groups of 5 under standard laboratory conditions under a 12 h light:dark cycle, lights on at 0700 h. All testing was carried out in the light phase. Food and water were freely provided. All experiments were conducted in accordance with the Animals Scientific Procedures Act, U.K. 1986 and were approved by the University of Bradford ethical review panel.
40 mg of test compound was dissolved in 5 ml of 40% hydroxypropyl β-cyclodextrin (HPBC) solution. The solution was sonicated until completely dissolved. 2 ml of sterile water was added and the pH measured and adjusted with NaOH solution (0.1N) to obtain pH ˜4. Finally, sterile water was added to a final volume of 10 ml. This stock solution was then diluted in 20% HPBC to obtain the final concentrations. 100 mg of PQ10 was dissolved in a 40% HPBC solution and 8 mg of tartaric acid. The solution was sonicated until completely dissolved. 5 ml of sterile water was added and the pH measured and adjusted with NaOH solution (0.1N) to obtain pH ˜4. Finally sterile water was added to a final volume of 10 ml.
Test compound was administered at doses of 0.3 and 1.0 mg/kg via the oral route 30 min prior to testing.
PQ10 was administered at a dose of 1.0 mg/kg via the oral route 30 min prior to testing.
Certain pre-clinical tests allow the observation of relatively subtle cognitive deficits in the rat that resemble cognitive symptoms in subjects with schizophrenia. The cognitive deficits observed are seen in behaviours such as episodic memory, which can be measured by recognition tasks such as the novel object recognition (NOR) paradigm. A recognition memory task allows the comparison between presented stimuli and previously stored information. Ennaceur, A Delacour, J (1988) A new one-trial test for neurobiological studies of memory in rats Behav Brain Res 31: 47-59 described the NOR test in rats which was based on the differential exploration of familiar and new objects. The NOR test is a non-rewarded, ethologically relevant paradigm based on the spontaneous exploratory behaviour of rats that measures episodic memory. Each session consists of two trials. In the first trial, the rats are exposed to two identical objects in an open field. During the second trial, rats are exposed to two dissimilar objects, one familiar object from the first trial and one new object. Object recognition in rats can be measured as the difference in time spent exploring the familiar and the new object. […] The duration of each trial is also important as a preference for the novel object only lasts during the first 1 or 2 minutes, after which time preference diminishes as both objects become familiar and are explored equally.
Rats were randomly assigned to the 8 treatment groups
Rats were allowed to habituate to the empty test box and the behavioural test room environment for 1 h on day 1. Prior to behavioural testing on day 2 rats were given a further 3 min habituation.
Following the 3 min habituation period, the rats were given two 3 min trials (T1 and T2) which were separated by a 1 min inter-trial interval in the home cage during which the objects were changed.
In this trial, the animals were allowed to explore two identical objects (A1 and A2) for 3 min.
In this trial, the animals explored a familiar object (A) from T1 and a novel object (B) for 3 min. The familiar object presented during T2 was a duplicate of the object presented in T1 in order to avoid any olfactory trails.
The object exploration was defined by animals licking, sniffing or touching the object with the forepaws whilst sniffing, but not leaning against, turning around, standing or sitting on the object. […]

In data set [2] the test system is female hooded-Lister rats. The data set is described as above. It counts as in vivo, rat. The following applies: PCP + 1 mg/kg p.o., Day 1, 3 min retention trial, mean.
The target of data set [3] is T1, Rat recombinant PDE10A (rPDE10A2) (Rattus norvegicus, UniProt Q9QYJ6).
T1 construct: inferred from the Ni metal chelate purification; made in house; host or cells: Sf9 insect cells (baculovirus)
T1 sequence (Q9QYJ6 1-794): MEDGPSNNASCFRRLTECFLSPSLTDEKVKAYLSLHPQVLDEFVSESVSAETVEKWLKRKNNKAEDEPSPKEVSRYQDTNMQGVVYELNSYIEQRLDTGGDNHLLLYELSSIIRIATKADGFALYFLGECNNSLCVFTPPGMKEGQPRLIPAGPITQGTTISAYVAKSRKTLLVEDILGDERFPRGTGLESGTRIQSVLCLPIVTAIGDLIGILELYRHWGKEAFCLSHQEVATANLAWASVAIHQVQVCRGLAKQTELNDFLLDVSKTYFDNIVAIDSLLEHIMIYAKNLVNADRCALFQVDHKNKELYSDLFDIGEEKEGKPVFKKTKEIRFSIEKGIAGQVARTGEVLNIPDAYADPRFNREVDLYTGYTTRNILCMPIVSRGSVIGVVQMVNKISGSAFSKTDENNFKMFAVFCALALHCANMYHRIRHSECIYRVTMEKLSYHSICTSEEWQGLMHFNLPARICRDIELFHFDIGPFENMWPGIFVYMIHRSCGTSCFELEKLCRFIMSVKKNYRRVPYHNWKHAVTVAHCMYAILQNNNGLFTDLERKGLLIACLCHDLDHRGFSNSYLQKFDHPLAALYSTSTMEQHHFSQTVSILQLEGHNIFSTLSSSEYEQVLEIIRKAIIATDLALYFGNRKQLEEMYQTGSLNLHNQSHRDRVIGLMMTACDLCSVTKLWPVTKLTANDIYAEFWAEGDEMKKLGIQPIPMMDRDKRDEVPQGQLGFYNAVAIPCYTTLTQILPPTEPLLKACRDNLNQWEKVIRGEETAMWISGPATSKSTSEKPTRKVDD
The data set is described as follows: In vitro assay PDE10A (SPA, 3H-cAMP). It counts as biochemical. The gist of the method:
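Rat PDE10A2 expressed in Sf9 cells and Ni-purified; incubated with 60 nM cAMP plus 0.008 μCi 3H-cAMP in 50 mM Tris pH 7.8, 8.3 mM MgCl2, 1.7 mM EGTA for 60 min at room temperature. Product quantified by scintillation proximity counting; final DMSO 1%.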

Data set [4] has as its system apomorphine-induced stereotypy in rats. The data set is described as follows: Apomorphine-induced stereotypy in rats (APO). It counts as in vivo. The following applies: Rattus norvegicus. As for the experimental part:
Apomorphine (1.0 mg/kg, i.v.)-induced stereotypy (compulsive sniffing, licking, chewing) was scored every 5 min over the first hour after injection of apomorphine, following a 1 hour interval pre-treatment with the test compound. The score system was: (3) pronounced, (2) moderate, (1) slight, and (0) absent.

Another data set has as its target PDE4D3 (Homo sapiens, UniProt Q08499). Put plainly: In vitro PDE selectivity assay (SPA), PDE4D3. The class given is biochemical. The following applies: hPDE4D3; read-out: PDE 4D3 (expressed as pIC50) (converted). A digest of the protocol: (§1)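 Inhibition of each PDE isoform was measured by scintillation proximity assay with ³H-cyclic nucleotide substrate, using incubation buffer, substrate concentration, incubation time and stop solution adapted per isoform. Compounds were tested in dose-response against 1% DMSO controls and enzyme-free blanks. IC50 came from a least-squares fit of blank-subtracted % of control versus concentration.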

A further data set addresses PDE5A3 (Homo sapiens, UniProt O76074). The data set is described as follows: In vitro PDE selectivity assay (SPA), PDE5A3. It counts as biochemical. The note with it: hPDE5A3; read-out: PDE 5A3 (expressed as pIC50) (converted). A digest of the protocol:
as §1

In data set [5] the target is other members of the PDE family (Homo sapiens, UniProt O00408). The data set is described as follows: In vitro PDE selectivity assay (SPA), other members of the PDE family (protocols in Table A). The class given is biochemical. The note with it: hPDE2A; read-out: PDE 2A (expressed as pIC50) (converted). The gist of the method:
as §1

For data set [6], the target named is other members of the PDE family (Homo sapiens, UniProt O60658). The data set is described as above. It counts as biochemical. The following applies: hPDE8A1; read-out: PDE 8A1 (expressed as pIC50) (converted). The gist of the method:
as §1

The target of data set [7] is other members of the PDE family (Homo sapiens, UniProt O76083). Described as above. The class given is biochemical. The following applies: hPDE9A; read-out: PDE 9A (expressed as pIC50) (converted). A digest of the protocol: as §1
Chain of other members of the PDE family (Homo sapiens, UniProt O76083) (O76083 whole entry): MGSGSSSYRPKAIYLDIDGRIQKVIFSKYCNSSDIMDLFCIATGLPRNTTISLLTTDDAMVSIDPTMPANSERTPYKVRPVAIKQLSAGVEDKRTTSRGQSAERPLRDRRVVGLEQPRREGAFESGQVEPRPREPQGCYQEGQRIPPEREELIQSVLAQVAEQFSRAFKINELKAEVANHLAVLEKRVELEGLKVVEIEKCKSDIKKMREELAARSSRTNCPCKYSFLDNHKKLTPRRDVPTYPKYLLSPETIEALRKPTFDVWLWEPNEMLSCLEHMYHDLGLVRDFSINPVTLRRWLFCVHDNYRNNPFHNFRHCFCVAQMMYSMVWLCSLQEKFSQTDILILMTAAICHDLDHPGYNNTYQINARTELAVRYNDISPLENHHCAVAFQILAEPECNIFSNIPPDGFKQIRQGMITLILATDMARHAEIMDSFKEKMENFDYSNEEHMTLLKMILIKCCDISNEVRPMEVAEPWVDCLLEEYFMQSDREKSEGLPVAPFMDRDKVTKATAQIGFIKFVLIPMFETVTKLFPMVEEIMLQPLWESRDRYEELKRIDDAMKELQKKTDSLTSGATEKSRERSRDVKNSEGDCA
Data set [8] addresses other members of the PDE family (Homo sapiens, UniProt P16499+P35913). Described as above. The class given is biochemical. The following applies: hPDE6AB; read-out: PDE 6AB (expressed as pIC50) (converted). A digest of the protocol:
as §1

In data set [9] the target is other members of the PDE family (Homo sapiens, UniProt Q13946). The description is as above. It counts as biochemical. The note with it: hPDE7A1; read-out: PDE 7A (expressed as pIC50) (converted). A digest of the protocol:
as §1

Data set [10] concerns the target other members of the PDE family (Homo sapiens, UniProt Q14432). The description is as above. The class given is biochemical. The following applies: hPDE3A; read-out: PDE 3A (expressed as pIC50) (converted). A digest of the protocol: as §1
Data set [11] addresses other members of the PDE family (Homo sapiens, UniProt Q9HCR9). The data set is described as above. It counts as biochemical. The note with it: hPDE11A4; read-out: PDE 11A4 (expressed as pIC50) (converted). A digest of the protocol: as §1
For the next data set, the target named is PDE1B1 (Homo sapiens, UniProt Q01064). Put plainly: In vitro PDE selectivity assay (SPA), PDE1B1. It counts as biochemical. The following applies: hPDE1B1; read-out: PDE 1B1 (expressed as pIC50) (converted).
Setting [12] is: pIC50 corresponds to the −log IC50 expressed in mol/L, read-out: PDE10A2 pIC50 (converted).
Setting [13] is: Table 4 in vitro selectivity, read-out: PDE 10A2 (expressed as pIC50) (converted).
Setting [14] is: dose at which 50% of the tested animals show the effect, ≧: active in 30% of the animals at the indicated dose, ≦: active in 60%.

Read-outs that look alike come from different tables or passages of the source.

Chain of other members of the PDE family (Homo sapiens, UniProt Q14432) (Q14432 whole entry): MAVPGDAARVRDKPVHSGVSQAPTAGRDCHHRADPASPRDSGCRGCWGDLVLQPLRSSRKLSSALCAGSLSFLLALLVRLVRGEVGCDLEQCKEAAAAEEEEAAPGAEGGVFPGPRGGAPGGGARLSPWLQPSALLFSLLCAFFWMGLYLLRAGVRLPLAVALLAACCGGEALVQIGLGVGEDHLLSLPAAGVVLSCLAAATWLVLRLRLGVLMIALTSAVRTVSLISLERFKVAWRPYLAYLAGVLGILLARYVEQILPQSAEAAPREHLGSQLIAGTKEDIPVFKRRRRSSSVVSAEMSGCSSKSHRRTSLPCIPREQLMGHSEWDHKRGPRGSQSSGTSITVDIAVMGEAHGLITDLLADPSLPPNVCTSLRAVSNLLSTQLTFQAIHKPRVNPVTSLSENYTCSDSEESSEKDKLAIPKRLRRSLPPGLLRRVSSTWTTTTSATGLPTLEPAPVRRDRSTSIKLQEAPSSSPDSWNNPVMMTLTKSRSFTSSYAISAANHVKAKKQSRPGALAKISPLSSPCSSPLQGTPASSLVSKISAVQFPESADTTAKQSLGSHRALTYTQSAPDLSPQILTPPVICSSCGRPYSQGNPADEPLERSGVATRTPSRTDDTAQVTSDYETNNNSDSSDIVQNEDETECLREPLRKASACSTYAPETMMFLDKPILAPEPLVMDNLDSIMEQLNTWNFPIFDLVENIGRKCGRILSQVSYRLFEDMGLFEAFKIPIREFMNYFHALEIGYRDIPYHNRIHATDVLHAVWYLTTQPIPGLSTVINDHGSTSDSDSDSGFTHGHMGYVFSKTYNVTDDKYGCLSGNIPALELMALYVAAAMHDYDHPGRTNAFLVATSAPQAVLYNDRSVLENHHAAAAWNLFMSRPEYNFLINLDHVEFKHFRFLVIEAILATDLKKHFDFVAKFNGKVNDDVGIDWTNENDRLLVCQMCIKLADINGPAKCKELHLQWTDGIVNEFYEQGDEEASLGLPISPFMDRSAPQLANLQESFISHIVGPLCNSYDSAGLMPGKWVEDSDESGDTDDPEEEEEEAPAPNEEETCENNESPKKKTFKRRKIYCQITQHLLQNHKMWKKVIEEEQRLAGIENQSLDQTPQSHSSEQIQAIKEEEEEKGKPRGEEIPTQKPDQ
Chain of PDE4D3 (Q08499 1-673 isoform Q08499-2): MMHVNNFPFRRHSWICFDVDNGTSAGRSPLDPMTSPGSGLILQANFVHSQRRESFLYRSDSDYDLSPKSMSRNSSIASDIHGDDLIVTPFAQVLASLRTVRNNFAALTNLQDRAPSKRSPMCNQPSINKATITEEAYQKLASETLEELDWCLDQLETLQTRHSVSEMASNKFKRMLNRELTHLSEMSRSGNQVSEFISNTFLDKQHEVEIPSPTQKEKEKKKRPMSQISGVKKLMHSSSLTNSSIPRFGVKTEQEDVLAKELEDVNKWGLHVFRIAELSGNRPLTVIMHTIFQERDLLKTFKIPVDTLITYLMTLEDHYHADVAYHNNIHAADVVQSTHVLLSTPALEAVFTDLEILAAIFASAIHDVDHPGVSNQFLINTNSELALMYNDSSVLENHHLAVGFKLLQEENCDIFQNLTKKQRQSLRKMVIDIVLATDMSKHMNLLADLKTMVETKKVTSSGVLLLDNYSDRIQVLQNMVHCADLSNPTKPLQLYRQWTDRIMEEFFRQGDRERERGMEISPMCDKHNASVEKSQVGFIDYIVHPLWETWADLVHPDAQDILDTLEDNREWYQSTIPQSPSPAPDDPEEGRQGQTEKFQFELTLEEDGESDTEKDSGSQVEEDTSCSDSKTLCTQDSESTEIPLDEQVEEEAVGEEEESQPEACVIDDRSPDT
Chain of other members of the PDE family (Homo sapiens, UniProt Q13946) (Q13946 whole entry): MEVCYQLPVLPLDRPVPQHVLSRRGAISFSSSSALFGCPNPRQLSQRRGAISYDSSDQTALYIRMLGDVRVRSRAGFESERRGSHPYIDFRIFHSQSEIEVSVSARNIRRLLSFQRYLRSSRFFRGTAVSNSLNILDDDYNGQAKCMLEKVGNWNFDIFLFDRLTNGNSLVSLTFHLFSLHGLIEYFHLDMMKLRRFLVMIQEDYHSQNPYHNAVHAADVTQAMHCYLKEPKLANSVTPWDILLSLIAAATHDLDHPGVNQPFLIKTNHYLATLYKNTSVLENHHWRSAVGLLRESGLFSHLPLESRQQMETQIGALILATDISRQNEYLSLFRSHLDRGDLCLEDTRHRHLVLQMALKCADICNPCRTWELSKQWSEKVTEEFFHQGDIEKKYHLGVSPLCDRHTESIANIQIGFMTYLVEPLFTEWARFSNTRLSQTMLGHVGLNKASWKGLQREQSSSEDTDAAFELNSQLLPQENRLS
Chain of other members of the PDE family (Homo sapiens, UniProt O00408) (O00408 whole entry): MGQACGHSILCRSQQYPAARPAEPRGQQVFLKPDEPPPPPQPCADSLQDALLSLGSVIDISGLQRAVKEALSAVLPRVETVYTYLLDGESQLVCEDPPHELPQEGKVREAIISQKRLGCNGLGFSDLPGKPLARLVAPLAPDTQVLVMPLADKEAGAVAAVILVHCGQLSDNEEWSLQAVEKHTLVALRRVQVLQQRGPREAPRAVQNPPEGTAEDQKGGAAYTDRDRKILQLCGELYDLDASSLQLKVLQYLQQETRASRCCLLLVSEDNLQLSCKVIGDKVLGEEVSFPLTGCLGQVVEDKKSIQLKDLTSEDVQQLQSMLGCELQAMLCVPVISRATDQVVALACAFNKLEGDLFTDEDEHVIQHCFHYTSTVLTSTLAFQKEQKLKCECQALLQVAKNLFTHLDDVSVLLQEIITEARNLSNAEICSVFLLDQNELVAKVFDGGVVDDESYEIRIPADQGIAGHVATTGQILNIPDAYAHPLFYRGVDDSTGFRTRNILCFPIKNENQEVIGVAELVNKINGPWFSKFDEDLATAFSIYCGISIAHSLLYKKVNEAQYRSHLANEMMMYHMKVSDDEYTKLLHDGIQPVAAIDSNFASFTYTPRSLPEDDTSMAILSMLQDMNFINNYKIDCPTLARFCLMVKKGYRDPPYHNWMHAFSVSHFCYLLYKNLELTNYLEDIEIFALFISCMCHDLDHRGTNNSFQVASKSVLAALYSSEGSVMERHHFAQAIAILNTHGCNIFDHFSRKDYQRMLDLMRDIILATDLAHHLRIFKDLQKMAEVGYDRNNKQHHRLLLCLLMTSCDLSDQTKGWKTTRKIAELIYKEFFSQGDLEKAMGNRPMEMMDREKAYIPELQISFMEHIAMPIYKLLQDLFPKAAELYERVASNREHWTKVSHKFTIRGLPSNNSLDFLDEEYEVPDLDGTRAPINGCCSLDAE
Chain of other members of the PDE family (Homo sapiens, UniProt Q9HCR9) (Q9HCR9 whole entry): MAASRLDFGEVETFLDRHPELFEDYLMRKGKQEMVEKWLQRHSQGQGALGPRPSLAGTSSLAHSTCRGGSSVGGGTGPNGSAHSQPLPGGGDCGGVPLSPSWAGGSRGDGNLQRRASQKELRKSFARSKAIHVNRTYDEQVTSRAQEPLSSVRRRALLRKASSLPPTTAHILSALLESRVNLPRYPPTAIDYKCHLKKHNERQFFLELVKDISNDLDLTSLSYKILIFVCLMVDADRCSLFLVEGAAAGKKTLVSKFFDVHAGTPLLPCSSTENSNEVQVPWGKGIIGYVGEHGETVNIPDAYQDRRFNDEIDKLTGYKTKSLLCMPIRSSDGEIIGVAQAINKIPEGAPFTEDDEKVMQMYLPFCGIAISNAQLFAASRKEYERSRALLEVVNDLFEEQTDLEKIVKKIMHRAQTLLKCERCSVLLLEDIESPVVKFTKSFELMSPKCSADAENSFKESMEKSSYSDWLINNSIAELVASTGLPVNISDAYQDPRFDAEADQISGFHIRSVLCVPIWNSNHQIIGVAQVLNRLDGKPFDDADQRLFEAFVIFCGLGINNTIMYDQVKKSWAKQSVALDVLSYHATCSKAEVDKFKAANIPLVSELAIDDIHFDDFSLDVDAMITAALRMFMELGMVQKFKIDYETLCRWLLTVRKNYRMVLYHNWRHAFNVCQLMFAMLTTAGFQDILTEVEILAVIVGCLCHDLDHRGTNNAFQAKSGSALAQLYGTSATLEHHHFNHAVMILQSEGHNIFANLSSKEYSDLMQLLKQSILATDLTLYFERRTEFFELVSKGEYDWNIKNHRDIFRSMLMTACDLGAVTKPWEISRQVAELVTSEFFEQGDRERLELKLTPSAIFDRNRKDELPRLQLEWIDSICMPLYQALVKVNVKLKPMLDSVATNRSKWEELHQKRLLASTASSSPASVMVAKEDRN

As to `COc1cc2ncnc(N3CC[C@@H](Oc4cnc5ccccc5n4)C3)c2cc1OC` [PQ10, reference compound], in data set [1] (PCP + 1 mg/kg p.o., mean), the “DI (discrimination index)” value is recorded as 0.4193 and the “LMA (no. of lines crossed)” value is given as 65.5 no. of lines crossed. For the same compound, the “effects of acute treatment in the NOR task” value in data set [1] (acute treatment, oral route 30 min prior to testing, compound 1 0.3-1.0 mg/kg, PQ10 1.0 mg/kg, sub-chronic PCP female rats) was “selective for the retention phase”. Moreover, in [2], the “T2(A) exploration time of familiar object, retention trial” value is 7.9 s and the “T2(B) exploration time of novel object, retention trial” value turned out to be 19.9 s.

One may read the ED50 as the midpoint of the dose-response relation. For orientation: melting point means the temperature of the solid-liquid transition. As for `Cc1nc2c(-c3ccncc3)ccnn2c1-c1ccc(N2CCOCC2)nc1` [compound 31, 2-methyl-3-[6-(4-morpholinyl)-3-pyridinyl]-8-(4-pyridinyl)-imidazo[1,2-b]pyridazine], the melting point is > 300 °C (dec.). In data set [3] (setting [12]), the IC50 is 0.0603 µM. This compound also displayed an ED50 in [4] (n.d.: found not active at threshold dose 2.5 mg/kg or 10 mg/kg (a), not further tested) above 2.5 mg/kg.

In the case of `COCCn1cc(-c2c(C)nc3c(N4CCOCC4)ccnn23)cn1` [compound 36, 3-[1-(2-methoxyethyl)-1H-pyrazol-4-yl]-2-methyl-8-(4-morpholinyl)-imidazo[1,2-b]pyridazine], the IC50 in [3] (setting [13]) is 0.0562 µM; in data set [3] (setting [12]) it was 0.0562 µM; at PDE4D3, above 10 µM; at PDE5A3, above 10 µM; in [5], above 10 µM; in [6] it was above 10 µM. Also, the IC50 in data set [7], in [8], in data set [9], in [10] and in data set [11] was above 10 µM in each case. This compound showed a 50% effective dose (ED50) in data set [4] (setting [14]) of 5 mg/kg.

For the compound `c1cc(-c2ccnn3c(-c4ccc(N5CCOCC5)nc4)cnc23)ccn1` [compound 61, 3-[6-(4-morpholinyl)-3-pyridinyl]-8-(4-pyridinyl)-imidazo[1,2-b]pyridazine], the IC50 is 0.339 µM in data set [3] (setting [13]); 0.339 µM in [3] (setting [12]); above 10 µM at PDE1B1; above 10 µM at PDE4D3; 2.69 µM on PDE5A3; 7.94 µM in data set [5]. The IC50 in [7], in data set [9], in data set [10] and in data set [11] was above 10 µM each time. The compound also had a 50% effective dose (ED50) in [4] (setting [14]) of 1.2 mg/kg.
